# Measurements: patent US20100129319A1, “TREATMENT OF DISEASE OR INJURY OF THE NERVOUS SYSTEM USING AGENTS THAT DECREASE THE ACTIVITY OF THE MELANOCORTIN 4 RECEPTOR” (priority 2006, published 2010)
# Bridges are numbered along the chain shown (N, C = ends). [ ]: non-standard residue; d: D form. d2Nal = N[C@H](Cc1ccc2ccccc2c1)C(=O)O; dPhe(diCl) = diCl-D-Phe
# Assays:
# MC3 = MC3 (Homo sapiens, UniProt P41968); conditions: printed in the column Selectivity (over MC3); cited from earlier work
# [1] = biological target: melanocortin 4 receptor (MC4R), murine (Mus musculus) (UniProt P56450); test: cell-based or functional assay
# adult neural stem cells [2] = test: ATP assay (intracellular ATP, cell number) in suspension cultures; format: cell-based, mice; conditions: for ATP levels: 1-100 nM, 3 days, suspension cultures, vs control
# Experimental: (§1) The anterior lateral wall of the lateral ventricle wall (LVW) of 5 week old mice was enzymatically dissociated at 37° C. for 20 min in 0.8 mg/mL hyaluronidase and 0.5 mg/mL trypsin in DMEM containing 4.5 mg/mL glucose and 80 units/mL DNase. The cells were diluted in 5 mL of DMEM/F12 medium (containing B27 supplement, […] HEPES Ph 7.4, 100 units/mL penicillin, and 100 micrograms/mL streptomycin). After passing through a 70 micron strainer, the cells were pelleted at 240×g for 5 minutes, washed and recentrifuged. The supernatant was subsequently removed and the cells resuspended in medium supplemented with 20 nanogram/mL EGF, plated out in culture dishes and incubated at 37° C. Neurosphere cultures were ready to be split approximately 7 days after plating.
# (§2) To split the neurosphere cultures, neurospheres were collected by centrifugation at 240×g for 5 minutes. The supernatant was discarded and the neurospheres were resuspended in 0.5 mL Trypsin/EDTA in HBSS (1×) and incubated at 37° C. for 2 minutes. During this period, the neurospheres were triturated gently to aid dissociation. Following a further 2 min incubation at 37° C. and trituration, 2 volumes of DMEM-F12+B27 medium were added. The cells were pelleted at 220×g for 4 min and resuspended in DMEM/F12+B27-medium containing 10 ng/mL EGF and 5 ng/mL bFGF. Subsequently the cultures were plated out and incubated at 37° C.
# Cells were harvested split as in example 1, except for omission of the growth factors in the media, and seeded as suspension cells, at a density of 10,000 cells/well on 96-well plates in DMEM/F12 supplemented with 1, 10 or 100 nM MC4R antagonist or without (control cells). Alternatively, adherent cells were seeded at a density of 30,000 cells/well on poly-D-lysine-coated 96-well plates in DMEM/F12 supplemented with 1% fetal calf serum (FCS). […]
# The following experiment was performed in quadruplicate. […] Intracellular ATP was measured using a Cell Viability kit SL according to the manufacturer's instructions (#188-441, BioThema, Sweden). […]
# MC4R = MC4R (Homo sapiens, UniProt P32245); conditions: cited from earlier work; for Selectivity (over MC3): MC4R over MC3; for Ki: read-out: Affinity for MC4R (Ki)
# [3] = tested on: neuronal stem/progenitor cell proliferation in the SVZ; conditions: i.c.v. infusion of 6.25, 62.5 or 625 ng/day for two weeks
# Experimental: To further characterize MC4R antagonist-stimulation of neogenesis, in vivo studies were performed. The effect of HS014 on proliferation (BrdU incorporation) was tested over a two week period at doses ranging from 6.25 to 625 ng/24h. Administration was done by i.c.v. infusion into the right lateral ventricle. BrdU was administered together with HS014 i.c.v. The animal's body weight was measured throughout the experiment. After termination of the experiment, BrdU expression was detected by immunohistochemistry on brain sections from the subependymal layer of the lateral ventricle wall as well as on the sub granular cells in dentate gyrus. […]
# As an additional marker for understanding whether a dose that is effective in eliciting a response controlled by the central nervous system, weight gain was also monitored throughout the experiment by weighing the animals. […]
# At the end of the experiment the rats were anaesthetized with sodium pentobarbital (120 mg, i.p.) and transcardially perfused with 90 ml of 0.9% NaCl and 4% PFA solution. […] As detection, Vectastain Elite (Vector) 1/100 was used and finally, developing was done by Sigma fast DAB tablet monitored in microscope, sections were then counterstained by HTX followed by dehydration and clearing.
# Quantification was performed using a Nikon eclipse E6000 microscope at a magnification of 40×. […]
# [4] = i.c.v. 2×1 nanomoles daily for 6 days or 0.16 nanomoles per hour for 2 weeks; cited from earlier work
# adult neural stem cells [5] = test: BrdU incorporation ELISA in adherent cultures; format: cell-based, mice; conditions: 1-100 nM, 3 days, vs control
# Experimental: as §1
# as §2, with “The cells were pelleted at 220×g for 4 min and resuspended in DMEM/F12+B27-medium containing 10 ng/mL EGF and 5 ng/mL bFGF. Subsequently the cultures were plated out and incubated at 37° C.” left out
# DNA synthesis is commonly used to measure cell proliferation. […] After incorporation if the thymidine analogue into DNA, BrdU was detected by immunoassay. […]
# [6] = Body weight during i.c.v. infusion (Example 4); format: in vivo, rats
# Experimental: BrdU was administered together with HS014 i.c.v.
# [7] = tested on: 6-OHDA-lesioned rat model of Parkinson's disease; test: Amphetamine-induced rotation in the 6-OHDA-lesioned rat model of Parkinson's disease (Example 5); format: in vivo; conditions: 62.5 ng/day i.c.v. for 2 weeks
# Text: In this study, the neurorestorative action of HS014 (from Sigma Aldrich) was investigated in the 6-hydroxydopamine (6-OHDA)-lesioned rat model of Parkinson's disease where the animals have a partial, unilateral loss of dopaminergic neurons. The lesion is induced by a single injection of 6-OHDA in the median forebrain bundle (see below). Upon amphetamine stimulation, the lesioned animals will display ipsiversive rotational behavior due to the imbalance in dopamine release resulting from the unilateral loss of dopaminergic cells. This allows the functional effects of a compound tested in this model to be quantified by counting the number of amphetamine-induced rotations.
# Male Sprague-Dawley rats weighing 280-320 g were housed in a temperature-controlled room under a 12 h light/dark cycle with free access to food and water. Thirty minutes prior to surgery, animals were injected intraperitoneally with pargyline (5 mg/kg) and desipramine (25 mg/kg). Rats were then placed in a stereotactic frame under general anaesthesia (Halothane). A small bur-hole was made in the right side of the skull. Each animal was given a unilateral injection of 4 μg, 6-OHDA (in 2 μl sterile water with 0.1% ascorbic acid) into the right medial forebrain bundle at co-ordinates −2.8 mm from bregma, 2 mm lateral to the midline, and 8.6 mm below skull according to the atlas of Paxinos and Watson. The 6-OHDA injection was made over a 5 min period using a 5 μl Hamilton syringe. The rats were allowed to recover for 5 weeks following the lesion. The animals were then implanted with an Alzet minipump attached to a cannula to allow infusion of HS014 or vehicle into the right lateral ventricle over a period of 2 weeks. The Alzet minipump was removed […].
# 24 rats were divided into 2 groups, individual rats being randomly assigned to a treatment group based on their baseline rotation (5 weeks post lesion) so they were equally distributed. […] Rotational activity was measured by counting the total number of turns for the duration of the experiment. […] Body weight was also recorded weekly. […]
# Sequence of MC4R (P32245 whole entry, species assumed, the tested form may be a part): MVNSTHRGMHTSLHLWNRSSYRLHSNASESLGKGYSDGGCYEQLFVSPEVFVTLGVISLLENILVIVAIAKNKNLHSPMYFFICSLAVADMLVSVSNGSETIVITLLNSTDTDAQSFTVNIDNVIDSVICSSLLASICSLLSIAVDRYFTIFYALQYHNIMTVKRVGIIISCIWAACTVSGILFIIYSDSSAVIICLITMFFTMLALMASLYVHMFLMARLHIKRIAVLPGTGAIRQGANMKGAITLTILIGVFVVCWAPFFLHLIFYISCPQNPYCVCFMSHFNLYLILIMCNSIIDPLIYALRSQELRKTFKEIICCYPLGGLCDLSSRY
# Sequence of melanocortin 4 receptor (MC4R), murine (Mus musculus) (P56450 whole entry): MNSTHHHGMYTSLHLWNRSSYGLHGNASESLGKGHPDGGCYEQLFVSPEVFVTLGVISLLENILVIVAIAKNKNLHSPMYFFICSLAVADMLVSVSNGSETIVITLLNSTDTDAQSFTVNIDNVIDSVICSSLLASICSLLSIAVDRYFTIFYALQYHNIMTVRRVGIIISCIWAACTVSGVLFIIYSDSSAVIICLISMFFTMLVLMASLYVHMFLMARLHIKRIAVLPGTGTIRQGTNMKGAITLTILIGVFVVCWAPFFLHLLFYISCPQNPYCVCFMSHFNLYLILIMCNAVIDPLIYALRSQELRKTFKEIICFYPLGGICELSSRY
# Sequence of MC3 (P41968 whole entry, species assumed): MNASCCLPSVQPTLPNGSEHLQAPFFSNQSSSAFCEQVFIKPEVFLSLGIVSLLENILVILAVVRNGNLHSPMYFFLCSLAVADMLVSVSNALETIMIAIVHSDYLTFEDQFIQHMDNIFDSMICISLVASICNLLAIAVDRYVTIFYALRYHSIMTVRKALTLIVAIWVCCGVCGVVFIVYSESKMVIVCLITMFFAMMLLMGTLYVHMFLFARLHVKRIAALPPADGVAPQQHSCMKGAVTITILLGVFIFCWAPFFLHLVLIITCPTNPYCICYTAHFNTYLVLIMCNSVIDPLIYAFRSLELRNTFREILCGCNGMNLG
compound,measurement,setting,value
"NCCC(=O)N[C@H](Cc1ccc(Cl)cc1Cl)C(=O)N1CCN(c2ccccc2CNCCc2cccs2)CC1 [Compound10, 4-{(2R)-[3-Aminopropionylamido]-3-(2,4-dichlorophenyl)propionyl}-1-{2-[(2-thienyl)ethylaminomethyl]phenyl}piperazine]",potency in cAMP assay,MC3,No potency i cAMP
Agouti (87-132) (peptide),"proliferation in the ATP-assay, at 400 nM (times control)",[1],1.6
"Agouti (87-132): endogenous MC4R antagonist peptide analogue (TPLSAPCVATRNSCKPPAPACCDPCASCQCRFFRSACSCRVLSLNC; UniProt P42127 87-132, looked up, fragment)",increase in proliferation (ATP-assay),adult neural stem cells [2]; at 400 nM,1.6 times control
HS024,Selectivity (over MC3),MC4R,20-fold
same,Ki,MC4R,290 pM
[acetyl group]-Cys-Glu-His-(D-2-Nal)-Arg-Trp-Gly-Cys-Pro-Pro-Lys-Asp-[amide group] (Ac-CEH[d2Nal]RWGCPPKD-NH2; disulfide 1-8 (inferred)) [HS014],ATP levels,adult neural stem cells [2],increase ATP levels
same,"dose with greatest effect on neuronal stem/progenitor cell proliferation (BrdU counts, SVZ)",[3],62.5 ng/day
same,food intake and body weight,[4],considerable increase in food intake and body weight
same,Selectivity (over MC3),MC4R,10-fold
same,Ki,MC4R,3200 pM
same,BrdU incorporation,adult neural stem cells [5],increase BrdU incorporation
same,dose at which weight gain was first significant,[6]; i.c.v. infusion for two weeks,62.5 ng/day
same,dose with greatest weight gain,[6]; i.c.v. infusion for two weeks,625 ng/day
same,weight gain,"[6]; i.c.v. infusion of 6.25, 62.5 or 625 ng/day for two weeks",increased in a dose-dependent manner
same,persistence of improvement after administration was stopped,[7],maintained for at least two weeks
same,rotation at week 4 compared to pre-pump levels,[7]; then 2 weeks without treatment,approximately 30%
same,net ipsiversive rotations at weeks 1-4 compared to the pre-pump response,[7]; all P<0.01,significant reduction
"[acetyl group]-Cys-Glu-His-(diCl-D-Phe)-Arg-Trp-Gly-Cys-Pro-Pro-Lys-Asp-[amide group] (Ac-CEH[dPhe(diCl)]RWGCPPKD-NH2; not fully specified (bridges); also: cyclic, bridge not given here) [HS028]",ATP levels,adult neural stem cells [2],increase ATP levels
same,Selectivity (over MC3),MC4R,80-fold
same,Ki,MC4R,950 pM
